# Literature values as cited in paper PMC3249774 (Research in Pharmaceutical Sciences, 2011).
# Tested on: neuroblastoma cells
# Conditions: cells treated with DFO
smiles,measurement,value
CC(=O)N(O)CCCCCNC(=O)CCC(=O)N(O)CCCCCNC(=O)CCC(=O)N(O)CCCCCN [DFO],Sensitivity of neuroblastoma cells relative to normal bone marrow cells,10 fold
